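In this assay, cells in 96-well plates receive the compound at five concentrations for 48 hours. Endpoints are linearly interpolated between the surrounding concentrations. GI50 = concentration required for 50% inhibition of growth.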 Active and inactive are the calls of the source. No stated cut-off is given here; in the data, active = GI50 up to about 1.1 µM and inactive = higher.
What was measured:
Test in all cases: NCI tumour cell line growth inhibition, 48 h
SNB-19 = test system: SNB-19
Malme-3M = test system: Malme-3M
HOP-92 = test system: HOP-92
OVCAR-4 = test system: OVCAR-4
RPMI-8226 = test system: RPMI-8226
ACHN = test system: ACHN
SF-539 = test system: SF-539
A549 = test system: A549
KM12 = test system: KM12
COLO 205 = test system: COLO 205
HCT-15 = test system: HCT-15
HL-60 = test system: HL-60
SK-OV-3 = test system: SK-OV-3
OVCAR-3 = test system: OVCAR-3
SR = test system: SR
NCI-H23 = test system: NCI-H23
A498 = test system: A498
SN12C = test system: SN12C
MOLT-4 = test system: MOLT-4

SMILES | GI50 (SNB-19) | GI50 (Malme-3M) | GI50 (HOP-92) | GI50 (OVCAR-4) | GI50 (RPMI-8226) | GI50 (ACHN) | GI50 (SF-539) | GI50 (A549) | GI50 (KM12) | GI50 (COLO 205) | GI50 (HCT-15) | GI50 (HL-60) | GI50 (SK-OV-3) | GI50 (OVCAR-3) | GI50 (SR) | GI50 (NCI-H23) | GI50 (A498) | GI50 (SN12C) | GI50 (MOLT-4)
CCSc1nc2sc(C)c(C)c2c(=O)n1-c1ccc(C(=O)O)cc1 | 31.1 µM (inactive) | > 100 µM (inactive) | > 100 µM (inactive) | 71.8 µM (inactive) | 34.1 µM (inactive) | 79.6 µM (inactive) | 18.8 µM (inactive) | 65.3 µM (inactive) | 54.8 µM (inactive) | > 100 µM (inactive) | 39.9 µM | 35.3 µM (inactive) | > 100 µM (inactive) | 24.8 µM (inactive) | 41.4 µM (inactive) | 38.3 µM (inactive) | 29.9 µM (inactive) | 55.1 µM (inactive) | 48.5 µM (inactive)
CC(C)(C)c1nc2c(o1)/C(=N\c1ccccc1)c1ccccc1C2=O | 8.17 µM (inactive) | 1.4 µM (inactive) | 4.69 µM (inactive) | 2.74 µM (inactive) | 3.94 µM (inactive) | 4.69 µM (inactive) | 2.99 µM (inactive) | 7.6 µM (inactive) | 11.7 µM (inactive) | 32.3 µM (inactive) | 4.25 µM | 2.87 µM (inactive) | 34.5 µM (inactive) | 1.33 µM (inactive) | 3.94 µM (inactive) | 1.44 µM (inactive) | 17.5 µM (inactive) | 3.64 µM (inactive) | 3.95 µM (inactive)
COc1cc(C2=NN(C)C(c3ccc([N+](=O)[O-])o3)C2)cc(OC)c1OC (centres undefined) | > 100 µM (inactive) | > 100 µM (inactive) | 45.5 µM (inactive) | 91.4 µM (inactive) | 1.78 µM (inactive) | > 100 µM (inactive) | 49.7 µM (inactive) | > 100 µM (inactive) | > 100 µM (inactive) | 36.9 µM (inactive) | 18.2 µM | 18.2 µM (inactive) | > 100 µM (inactive) |  | 0.0736 µM (active) | > 100 µM (inactive) | > 100 µM (inactive) | 83.8 µM (inactive) | 24 µM (inactive)
O=C(c1ccccc1)N1C2CCC1C(C(F)(F)F)=C2C(F)(F)F | > 100 µM (inactive) | > 100 µM (inactive) | > 100 µM (inactive) | > 100 µM (inactive) | > 100 µM (inactive) |  | > 100 µM (inactive) | > 100 µM (inactive) | > 100 µM (inactive) | > 100 µM (inactive) | > 100 µM | 45.7 µM (inactive) | > 100 µM (inactive) | > 100 µM (inactive) | > 100 µM (inactive) | > 100 µM (inactive) | > 100 µM (inactive) | > 100 µM (inactive) | > 100 µM (inactive)
CS(=O)(=O)OCCn1cnc2nc(NC(=O)c3ccccc3)[nH]c(=O)c21 | > 100 µM (inactive) | > 100 µM (inactive) | > 100 µM (inactive) | > 100 µM (inactive) | > 100 µM (inactive) | > 100 µM (inactive) | > 100 µM (inactive) | > 100 µM (inactive) | > 100 µM (inactive) | > 100 µM (inactive) | > 100 µM | > 100 µM (inactive) | > 100 µM (inactive) | > 100 µM (inactive) | > 100 µM (inactive) |  | > 100 µM (inactive) | > 100 µM (inactive) | 
COc1ccc(NC(=O)CC(=O)NN2C(=O)/C(=C/c3ccc(N(CCC#N)CCC#N)cc3C)N=C2/C=C\c2ccccc2)cc1 | > 100 µM (inactive) | > 100 µM (inactive) | > 100 µM (inactive) | > 100 µM (inactive) | > 100 µM (inactive) | > 100 µM (inactive) | > 100 µM (inactive) | > 100 µM (inactive) | > 100 µM (inactive) | > 100 µM (inactive) | > 100 µM | > 100 µM (inactive) | > 100 µM (inactive) | > 100 µM (inactive) | > 100 µM (inactive) | > 100 µM (inactive) | > 100 µM (inactive) | > 100 µM (inactive) | > 100 µM (inactive)
O=[N+]([O-])c1ccc(Cl)c(C2CC(c3cccc4ccccc34)=Nc3ccccc3[S+]2[O-])c1 (centres undefined) | 29 µM (inactive) | 18.9 µM (inactive) | 0.519 µM (active) | 22 µM (inactive) | 2.21 µM (inactive) | 18.5 µM (inactive) | 13.7 µM (inactive) | 20 µM (inactive) | 18.9 µM (inactive) | > 56.6 µM (inactive) | 13.6 µM | 4.89 µM (inactive) | > 100 µM (inactive) | 22.6 µM (inactive) | 10.5 µM (inactive) | 8.75 µM (inactive) | 24.2 µM (inactive) | 21 µM (inactive) | 3.68 µM (inactive)
Oc1cc(-c2cccs2)nc2cc3c(cc12)OCO3 | 10.4 µM (inactive) | 3.08 µM (inactive) | > 100 µM (inactive) |  | 6.32 µM (inactive) | 7.31 µM (inactive) | 3.7 µM (inactive) | 4.9 µM (inactive) | 2.45 µM (inactive) | 9.06 µM (inactive) | 4.23 µM | 4.37 µM (inactive) | 2.7 µM (inactive) | 4.63 µM (inactive) | 4.73 µM (inactive) | 3.78 µM (inactive) | 3.17 µM (inactive) | 6.76 µM (inactive) | 4.52 µM (inactive)
CCOCc1cc(=O)c2cc3c(cc2o1)OC(C)(C)CC3 | > 100 µM (inactive) | > 100 µM (inactive) | 45.7 µM (inactive) | > 100 µM (inactive) | 91.4 µM (inactive) | > 100 µM (inactive) | > 100 µM (inactive) | > 100 µM (inactive) | > 100 µM (inactive) | > 100 µM (inactive) | > 100 µM | 61.2 µM (inactive) | > 100 µM (inactive) | > 100 µM (inactive) | 72.3 µM (inactive) | > 100 µM (inactive) | > 100 µM (inactive) | > 100 µM (inactive) | 55.5 µM (inactive)
Cc1cccc(C)c1N1C(=O)C(=O)C(c2nc3ccccc3s2)/C(=N/c2cccc3c(=O)[nH][nH]c(=O)c23)C1=O (centres undefined) | > 100 µM (inactive) | > 100 µM (inactive) | 92 µM (inactive) | 79.3 µM (inactive) | > 100 µM (inactive) | > 100 µM (inactive) | > 100 µM (inactive) | > 100 µM (inactive) | > 100 µM (inactive) | 41.5 µM (inactive) | > 100 µM | 71.3 µM (inactive) | > 100 µM (inactive) | > 100 µM (inactive) | 99.5 µM (inactive) | > 100 µM (inactive) | > 100 µM (inactive) | > 100 µM (inactive) | 66.5 µM (inactive)
CCc1cc(Cc2cc(CC)c(NC(=O)C(=O)Cc3ccccn3)c(CC)c2Cl)c(Cl)c(CC)c1NC(=O)C(=O)Cc1ccccn1 | > 100 µM (inactive) | > 100 µM (inactive) | > 100 µM (inactive) | > 100 µM (inactive) | > 100 µM (inactive) | > 100 µM (inactive) | > 100 µM (inactive) | > 100 µM (inactive) | 78.3 µM (inactive) | 64 µM (inactive) | 39.4 µM | > 100 µM (inactive) | > 100 µM (inactive) | > 100 µM (inactive) | > 100 µM (inactive) | > 100 µM (inactive) | > 100 µM (inactive) | > 100 µM (inactive) | > 100 µM (inactive)

— ChEMBL document CHEMBL1201862, “PubChem BioAssay data set” (2004)
